Patent US5498632A, “Esters of acyl carnitines with long-chain aliphatic alcohols and pharmaceutical compositions containing same having antibacterial activity” (Sigma-Tau Industrie Farmaceutiche Riunite S.p.A., priority 1992, dated 1996)

Legend:
Type in all cases: cell-based
[1] = system: Gram+ bacterial strains; assay: Mean MIC in broth and resistant strain number, Gram+ strains; conditions: 18 h, versus susceptible strains
Description: (§1) Evaluation of the Minimal Inhibitory Concentration (MIC) in broth of 15 new substances for Gram+ bacterial strains.
(§2) The following strains were used: Staphylococcus aureus (4); Streptococcus faecalis (8); Bacillus pumilus (1); Bacillus subtilis (1).
(§3) MICs were determined by a standard microdilution test, using serial two-fold dilutions of the substances in Mueller-Hinton broth.
(§4) The inoculum was prepared from an overnight culture in Mueller-Hinton broth matching the 0.5 Mc Farland (turbidity) standard (BRAY W. E., Clinical Laboratory Methods, 5th Ed. C. V. MOSBY, St. Louis, Mo. 1957), and was adjusted to a final concentration of 5.0×10^4 colony-forming units/ml.
(§5) Equal volumes (0.1 ml) of both bacterial suspensions and substance solutions were distributed in microtiter plates (Falcon, 96 wells, round bottom), and then placed in a humidified incubator (37° C.) for 18 hours.
(§6) The results, in terms of MIC values, resistant strain number and mean MIC values versus susceptible strains, are illustrated in Tables 1-6.

[2] = system: Gram- bacterial strains; assay: Mean MIC in broth and resistant strain number, Gram- strains; conditions: 18 h, read-out: Mean MIC values
Description: as §3, §4, §5
(§7) Evaluation of the Minimal Inhibitory Concentration (MIC) in broth of 16 new substances for Gram- bacterial strains.
(§8) The following strains were used: Enterobacter (1), Escherichia (3), Klebsiella (3), Proteus (3); Pseudomonas (2); Salmonella (2), Serratia (1).

[3] = system: Enterobacter aerogenes (UM); assay: MIC in broth, Gram- strains; conditions: Klebsiella aerogenes, 18 h, read-out: Minimal Inhibitory Concentration (MIC)
Description: as §3, §4, §5, §7, §8

[4] = system: Escherichia coli (92 F); assay: MIC in broth, Gram- strains; conditions: 18 h, E. coli (92 F), read-out: Minimal Inhibitory Concentration (MIC)
Description: as §3, §4, §5, §7, §8

[5] = system: Pseudomonas aeruginosa (10 E); assay: MIC in broth, Gram- strains; conditions: 18 h, read-out: Minimal Inhibitory Concentration (MIC)
Description: as §3, §4, §5, §7, §8

[6] = system: Proteus mirabilis (32); assay: MIC in broth, Gram- strains; conditions: 18 h, read-out: Minimal Inhibitory Concentration (MIC)
Description: as §3, §4, §5, §7, §8

[7] = system: Salmonella typhimurium (D.S.); assay: MIC in broth, Gram- strains; conditions: Salmonella enterica, 18 h, read-out: Minimal Inhibitory Concentration (MIC)
Description: as §3, §4, §5, §7, §8

[8] = system: Salmonella typhi (J); assay: MIC in broth, Gram- strains; conditions: Salmonella enterica, 18 h, read-out: Minimal Inhibitory Concentration (MIC)
Description: as §3, §4, §5, §7, §8

[9] = system: Proteus morganii (D.S.); assay: MIC in broth, Gram- strains; conditions: Morganella morganii, 18 h, read-out: Minimal Inhibitory Concentration (MIC)
Description: as §3, §4, §5, §7, §8

[10] = system: Escherichia coli (R 57B); assay: MIC in broth, Gram- strains; conditions: 18 h, E. coli (R 57B), read-out: Minimal Inhibitory Concentration (MIC)
Description: as §3, §4, §5, §7, §8

[11] = system: Klebsiella oxytoca (552); assay: MIC in broth, Gram- strains; conditions: 18 h, read-out: Minimal Inhibitory Concentration (MIC)
Description: as §3, §4, §5, §7, §8

[12] = system: Proteus vulgaris (UM); assay: MIC in broth, Gram- strains; conditions: 18 h, read-out: Minimal Inhibitory Concentration (MIC)
Description: as §3, §4, §5, §7, §8

[13] = system: Pseudomonas aeruginosa (3 E); assay: MIC in broth, Gram- strains; conditions: 18 h, read-out: Minimal Inhibitory Concentration (MIC)
Description: as §3, §4, §5, §7, §8

[14] = system: Klebsiella pneumoniae (7823); assay: MIC in broth, Gram- strains; conditions: 18 h, read-out: Minimal Inhibitory Concentration (MIC)
Description: as §3, §4, §5, §7, §8

[15] = system: Klebsiella aerogenes (SH 1082); assay: MIC in broth, Gram- strains; conditions: 18 h, read-out: Minimal Inhibitory Concentration (MIC)
Description: as §3, §4, §5, §7, §8

[16] = system: Streptococcus faecalis (518); assay: MIC in broth, Gram+ strains; conditions: Enterococcus faecalis; S. faecalis (518), Mueller-Hinton broth, 37° C., 18 hours; read-out: Minimal Inhibitory Concentration (MIC)
Description: as §1, §2, §3, §4, §5, §6

[17] = system: Staphylococcus aureus (ATCC 14154); assay: MIC in broth, Gram+ strains; conditions: ATCC14154, S. aureus (ATCC 14154), Mueller-Hinton broth, 37° C., 18 hours, read-out: Minimal Inhibitory Concentration (MIC)
Description: as §1, §2, §3, §4, §5, §6

[18] = system: Streptococcus faecalis (505); assay: MIC in broth, Gram+ strains; conditions: Enterococcus faecalis; S. faecalis (505), Mueller-Hinton broth, 37° C., 18 hours; read-out: Minimal Inhibitory Concentration (MIC)
Description: as §1, §2, §3, §4, §5, §6

[19] = system: Bacillus pumilus (CN 607); assay: MIC in broth, Gram+ strains; conditions: B. pumilus (CN 607), Mueller-Hinton broth, 37° C., 18 hours, read-out: Minimal Inhibitory Concentration (MIC)
Description: as §1, §2, §3, §4, §5, §6

[20] = system: Streptococcus faecalis (519); assay: MIC in broth, Gram+ strains; conditions: Enterococcus faecalis; S. faecalis (519), Mueller-Hinton broth, 37° C., 18 hours; read-out: Minimal Inhibitory Concentration (MIC)
Description: as §1, §2, §3, §4, §5, §6

[21] = system: Streptococcus faecalis (509); assay: MIC in broth, Gram+ strains; conditions: Enterococcus faecalis; S. faecalis (509), Mueller-Hinton broth, 37° C., 18 hours; read-out: Minimal Inhibitory Concentration (MIC)
Description: as §1, §2, §3, §4, §5, §6

[22] = system: Streptococcus faecalis (UM); assay: MIC in broth, Gram+ strains; conditions: Enterococcus faecalis; S. faecalis (UM), Mueller-Hinton broth, 37° C., 18 hours; read-out: Minimal Inhibitory Concentration (MIC)
Description: as §1, §2, §3, §4, §5, §6

[23] = system: Bacillus subtilis (ATCC 6051); assay: MIC in broth, Gram+ strains; conditions: ATCC6051, B. subtilis (ATCC 6051), Mueller-Hinton broth, 37° C., 18 hours, read-out: Minimal Inhibitory Concentration (MIC)
Description: as §1, §2, §3, §4, §5, §6

[24] = system: Streptococcus faecalis (501); assay: MIC in broth, Gram+ strains; conditions: Enterococcus faecalis; S. faecalis (501), Mueller-Hinton broth, 37° C., 18 hours; read-out: Minimal Inhibitory Concentration (MIC)
Description: as §1, §2, §3, §4, §5, §6

[25] = system: Streptococcus faecalis (R 2); assay: MIC in broth, Gram+ strains; conditions: Enterococcus faecalis; S. faecalis (R 2), Mueller-Hinton broth, 37° C., 18 hours; read-out: Minimal Inhibitory Concentration (MIC)
Description: as §1, §2, §3, §4, §5, §6

[26] = system: Staphylococcus aureus (LC1); assay: MIC in broth, Gram+ strains; conditions: S. aureus (LC1), Mueller-Hinton broth, 37° C., 18 hours, read-out: Minimal Inhibitory Concentration (MIC)
Description: as §1, §2, §3, §4, §5, §6

[27] = system: Streptococcus faecalis (516); assay: MIC in broth, Gram+ strains; conditions: Enterococcus faecalis; S. faecalis (516), Mueller-Hinton broth, 37° C., 18 hours; read-out: Minimal Inhibitory Concentration (MIC)
Description: as §1, §2, §3, §4, §5, §6

[28] = system: Staphylococcus aureus (303); assay: MIC in broth, Gram+ strains; conditions: S. aureus (303), Mueller-Hinton broth, 37° C., 18 hours, read-out: Minimal Inhibitory Concentration (MIC)
Description: as §1, §2, §3, §4, §5, §6

[29] = system: Helicobacter pylori NCTC 11637; assay: In vitro synergistic effect of ST 722 and Bismuth Subcitrate
Description: CBS from the commercially available product De-Nol® (Gist-Brocades, Netherland), i.e. ammonium and potassium double salt of colloidal bismuth citrate hydroxide, was utilized by preparing a suspension of 10 mg/ml CBS in 1N NaOH. After diluting 1:10 in Mueller-Hinton broth, 8 serial two-fold dlitutions in the same medium were made. The compound ST 722 was dissolved in Mueller-Hinton broth at a starting concentration of 100 mcg/ml, then 7 serial two-fold dilutions were carried out.
The "in vitro" anti-Helicobacter activity of both CBS and ST 722, alone and in association, was tested by utilizing the strain H. pylori NCTC 11637.
A 24-hour culture of Helicobacter in Columbia agar medium supplemented with Vitox (Oxoid) and 7% defribinated horse blood is washed with Mueller-Hinton broth.
Following densitometric evaluation (reading at 600 nm), the bacterial suspension was adjusted to a concentration of 1.0×10^9 cells/ml and 0.2-ml volumes were distributed into each well of a 96-well U-bottomed microtiter plate.
A 1-μl volume of this bacterial suspension was then distributed, by means of a Steers-type replicator apparatus, into the wells of microtiter plates containing the substances, either alone or in association. The final bacterial inoculum contained approximately 1.0×10^6 bacterial cells.
The procedure described by Garrod et al. (GARROD, L. P. and WATERWORTH, P. M., 1962. Methods of testing combined antibiotic bactericidal action and the significance of the results. J. Clin. Pathol. 15, 328-338) was utilized.
Briefly, 250-μl volumes of each test substance, either alone or admixed in all the possible combinations, were additioned to 4.5 ml of Mueller-Hinton agar containing 5% defribinated horse serum. Volumes of 0.2 ml/well of the resulting solution were distributed into the wells of a microtiter plate, then seeded with 1 μl/well of a standardized bacterial suspension, and finally incubated for 48 hours at 37° C. in a 10% CO2 atmosphere.
In order to evaluate the results obtained with combinations of antibiotics it was utilized the method (KROGSTAD, D. J. and MOELLERING, R. C., 1983. Antimicrobial combinations. In LORIAN, V., Antibiotics in Laboratory Medicine, 15, 537-549) based on the calculation of the Fractional Inhibitory Concentration Index (FIC index).
FIC index is calculated as follows: [formula] Where (A) is the MIC of substance A in the association and (MICA) is the […] of the organism to substance A alone. FICA is the fractional inhibitory concentration of substance A. (B), (MICB) and FICB are defined in the same fashion for substance B.
Based on these criteria, the effect of a combination of 2 substances is referred to as 'synergistic" when the FIC index is ≤0.5, "additive" with a FIC index=1, and "antagonist" when FIC index is >1.

CCCCCCCCCCCCOC(=O)CC(C[N+](C)(C)C)OC(=O)C(C)C (stereo not drawn) [ST 1038]
MIC [1]: 3.48 µg/mL | MIC [2]: 41.7 µg/mL | MIC [3]: 25 µg/mL | MIC [4]: 25 µg/mL | MIC [5]: 100 µg/mL | MIC [6]: > 100 µg/mL | MIC [7]: 25 µg/mL | MIC [8]: 25 µg/mL | MIC [9]: 100 µg/mL | MIC [10]: 100 µg/mL | MIC [11]: 25 µg/mL | MIC [12]: 100 µg/mL | MIC [13]: 100 µg/mL | MIC [14]: 25 µg/mL | MIC [15]: 50 µg/mL | MIC [16]: 3.12 µg/mL | MIC [17]: 3.12 µg/mL | MIC [18]: 3.12 µg/mL | MIC [19]: 3.12 µg/mL | MIC [20]: 3.12 µg/mL | MIC [21]: 3.12 µg/mL | MIC [22]: 3.12 µg/mL | MIC [23]: 6.25 µg/mL | MIC [24]: 3.12 µg/mL | MIC [25]: 3.12 µg/mL | MIC [26]: 1.56 µg/mL | MIC [27]: 3.12 µg/mL | MIC [28]: 6.25 µg/mL

Colloidal Bismuth Subcitrate [CBS, reference compound]
FIC (fractional inhibitory concentration) ([29]; ST 722 with CBS): 0.50 | MIC ([29]; substance alone, H. pylori NCTC 11637, 48 hours): 6.25 µg/mL
